The structures appear in SMILES notation.

Holding throughout (test): (S)DDA disc diffusion
On the technique in general: In agar diffusion tests the substance spreads into inoculated agar from a disc or well.

One assay concerns P. acnes PRP-002. It counts as cell-based, Propionibacterium acnes. Particulars: P. acnes PRP-002 (Tet/MLS); 200 μg TCC or 50 μg DOSS per disc. On the procedure: (§1) The propionibacteria were cultured and maintained on Wilkins-Chalgren Anaerobe Medium (agar and broth) at pH 6.0; all cultures were incubated anaerobically at 37° C. for 72 hours.
(§2) A sterile paper disc was impregnated with a sample of the test compound in a suitable solvent and 30 minutes allowed for the solvents to evaporate (where possible). The disc was then placed on an agar plate onto which the test micro-organism had been inoculated. The plate was then incubated under the conditions described above, following which it was examined visually for signs of microbial growth. If the test compound had antimicrobial activity, a circular zone of no growth would be obtained around the disc. The diameter of this zone of “inhibition” was measured using a ProtoCOL™ automated zone sizer (Synbiosis, Cambridge, UK). In general, a greater diameter and/or area of the zone of inhibition indicates a greater antimicrobial activity in the relevant test compound, although other factors such as test compound mobility through the agar gel may also influence the result.
(§3) Two test a compounds A and B were placed on a single paper disc and the above described DDA procedure repeated. An increase in diameter of the zone of inhibition, compared to the greater of the zone diameters for the two compounds individually, was taken to indicate potential antimicrobial synergy. In practical terms, an increase of greater than 5 mm could be treated as significant.
(§4) Both the DDA and the SDDA test may be carried out using an agar gel supplemented with lipid and/or salt to simulate some of the major components present in human skin and to assess whether these substances might reduce the antimicrobial activity observed for the test compound. Performance under these conditions can provide a more reliable indication of activity on topical application. The supplements used in Examples 1, 11, 12 and 13 below were lipid (either Tween™ 80 at 1% v/v (Example 1) or triolein at 1% v/v (Examples 11, 12 and 13) and sodium chloride (100 mM).

The next assay deals with P. acnes PRP-017. The assay is classed as cell-based, Propionibacterium acnes. As to conditions: P. acnes PRP-017 (MLS); 200 μg TCC or 50 μg DOSS per disc. On the procedure: as §1, §2, §3, §4
A further assay relates to P. acnes PRP-102. It counts as cell-based, Propionibacterium acnes. As to conditions: P. acnes PRP-102 (Tet/MLS); 200 μg TCC or 50 μg DOSS per disc. The procedure:
as §1, §2, §3, §4

A further assay relates to P. acnes PRP-039. It counts as cell-based, Propionibacterium acnes. Particulars: P. acnes PRP-039 (Tet/MLS); 200 μg TCC or 50 μg DOSS per disc. The procedure:
as §1, §2, §3, §4

The subject of a further assay is P. acnes PRP-046. The assay is classed as cell-based, Propionibacterium acnes. Particulars: P. acnes PRP-046 (resistance None); 200 μg TCC or 50 μg DOSS per disc. On the procedure:
as §1, §2, §3, §4

The next assay deals with P. acnes PRP-004. The assay is classed as cell-based, Propionibacterium acnes. As to conditions: P. acnes PRP-004 (Tet); 200 μg TCC or 50 μg DOSS per disc. The procedure: as §1, §2, §3, §4
For the next assay, the system named is P. acnes PRP-010. It counts as cell-based, Propionibacterium acnes. Particulars: P. acnes PRP-010 (MLSK); 200 μg TCC or 50 μg DOSS per disc. The procedure: as §1, §2, §3, §4
For the next assay, the system named is P. acnes PRP-101. It counts as cell-based, Propionibacterium acnes. Particulars: P. acnes PRP-101 (Tet/MLS); 200 μg TCC or 50 μg DOSS per disc. The procedure: as §1, §2, §3, §4
For the next assay, the system named is P. acnes PRP-068. It counts as cell-based, Propionibacterium acnes. As to conditions: P. acnes PRP-068 (Ery); 200 μg TCC or 50 μg DOSS per disc. On the procedure: as §1, §2, §3, §4
A further assay has as its system P. acnes PRP-008. The assay is classed as cell-based, Propionibacterium acnes. Particulars: P. acnes PRP-008 (Clin); 200 μg TCC or 50 μg DOSS per disc. The procedure:
as §1, §2, §3, §4

In another assay the test system is P. granulosum PRP-021. It counts as cell-based, Propionibacterium granulosum. As to conditions: P. granulosum PRP-021 (MLS); 200 μg TCC or 50 μg DOSS per disc. The procedure:
as §1, §2, §3, §4

The next assay relates to P. granulosum PRP-043. The assay is classed as cell-based, Propionibacterium granulosum. As to conditions: P. granulosum PRP-043 (MLS); 200 μg TCC or 50 μg DOSS per disc. On the procedure:
as §1, §2, §3, §4

In another assay the test system is P. granulosum NCTC 11865. It counts as cell-based, Propionibacterium granulosum. As to conditions: P. granulosum NCTC 11865 (resistance None); 200 μg TCC or 50 μg DOSS per disc. The procedure: as §1, §2, §3, §4
Another assay deals with P. granulosum PRP-044. It counts as cell-based, Propionibacterium granulosum. As to conditions: P. granulosum PRP-044 (MLS); 200 μg TCC or 50 μg DOSS per disc. On the procedure: as §1, §2, §3, §4
The subject of the next assay is P. granulosum PRP-019. The assay is classed as cell-based, Propionibacterium granulosum. Particulars: P. granulosum PRP-019 (MLSK); 200 μg TCC or 50 μg DOSS per disc. The procedure:
as §1, §2, §3, §4

The next assay concerns P. granulosum PRP-006. The assay is classed as cell-based, Propionibacterium granulosum. Particulars: P. granulosum PRP-006 (MLS); 200 μg TCC or 50 μg DOSS per disc. The procedure:
as §1, §2, §3, §4

For a further assay, the system named is P. granulosum PRP-055. It counts as cell-based, Propionibacterium granulosum. Particulars: P. granulosum PRP-055 (resistance None); 200 μg TCC or 50 μg DOSS per disc. On the procedure:
as §1, §2, §3, §4

Take `O=C(Nc1ccc(Cl)cc1)Nc1ccc(Cl)c(Cl)c1` [TCC, N-(4-chlorophenyl)-N′-(3,4-dichlorophenyl) urea]: the DDA in the assay on P. acnes PRP-002 was found to be 34.22 mm; in the assay with P. acnes PRP-017, 18.81 mm; in the assay on P. acnes PRP-102 it was 14.59 mm; with P. acnes PRP-039 it was 18.91 mm; with P. acnes PRP-046, 20.25 mm; with P. acnes PRP-004 it was 15.42 mm. Besides, the DDA stood at 22.81 mm in the assay on P. acnes PRP-010; 16.75 mm in the assay on P. acnes PRP-101; 22.30 mm in the assay on P. acnes PRP-068; 14.80 mm with P. acnes PRP-008; 0.00 mm in the assay with P. granulosum PRP-021; 8.84 mm in the assay on P. granulosum PRP-043. The DDA with P. granulosum NCTC 11865 is recorded as 17.78 mm; with P. granulosum PRP-044, 0.00 mm; in the assay on P. granulosum PRP-019 it was 0.00 mm; with P. granulosum PRP-006, 10.17 mm; in the assay on P. granulosum PRP-055 it was 17.16 mm.

These data come from patent US20100273876A1, “ANTIBACTERIAL FORMULATION COMPRISING A DIALKYL SULPHOSUCCINATE AND A CARBANILIDE ANTIBACTERIAL AGENT” (priority 2007, published 2010).
